Source: ChEMBL document CHEMBL2074285, “Characterization of the drug resistance and transport properties of multidrug resistance protein 6 (MRP6, ABCC6)” (Cancer Res, 2002)
Numbered stars: 1 amine (or outer) side, 2 acyl side, 3 side chain; on linkers, the order of the positions; unused ones are H or OH. Bridge positions count the residues as written; N and C are the ends. Square brackets hold non-standard residues; d marks the D form. Peptide text beside a SMILES is read from it. I, II: the chains in the order shown. Actinocin(9to1) = Cc1c2oc3c(C)ccc(C(=O)[*:1])c3nc-2c(C(=O)[*:2])c(N)c1=O; NMeV = CN[C@H](C(=O)O)C(C)C; Sar = CNCC(=O)O

How the values were obtained:
[1] = target: T1, ATP-binding cassette sub-family C member 6 (Homo sapiens, UniProt O95255); test: TP_TRANSPORTER: uptake in membrane vesicle from MRP6-expressing CHO cells; type: functional, cell membranes; conditions: hamster
T1 sequence (O95255 whole entry): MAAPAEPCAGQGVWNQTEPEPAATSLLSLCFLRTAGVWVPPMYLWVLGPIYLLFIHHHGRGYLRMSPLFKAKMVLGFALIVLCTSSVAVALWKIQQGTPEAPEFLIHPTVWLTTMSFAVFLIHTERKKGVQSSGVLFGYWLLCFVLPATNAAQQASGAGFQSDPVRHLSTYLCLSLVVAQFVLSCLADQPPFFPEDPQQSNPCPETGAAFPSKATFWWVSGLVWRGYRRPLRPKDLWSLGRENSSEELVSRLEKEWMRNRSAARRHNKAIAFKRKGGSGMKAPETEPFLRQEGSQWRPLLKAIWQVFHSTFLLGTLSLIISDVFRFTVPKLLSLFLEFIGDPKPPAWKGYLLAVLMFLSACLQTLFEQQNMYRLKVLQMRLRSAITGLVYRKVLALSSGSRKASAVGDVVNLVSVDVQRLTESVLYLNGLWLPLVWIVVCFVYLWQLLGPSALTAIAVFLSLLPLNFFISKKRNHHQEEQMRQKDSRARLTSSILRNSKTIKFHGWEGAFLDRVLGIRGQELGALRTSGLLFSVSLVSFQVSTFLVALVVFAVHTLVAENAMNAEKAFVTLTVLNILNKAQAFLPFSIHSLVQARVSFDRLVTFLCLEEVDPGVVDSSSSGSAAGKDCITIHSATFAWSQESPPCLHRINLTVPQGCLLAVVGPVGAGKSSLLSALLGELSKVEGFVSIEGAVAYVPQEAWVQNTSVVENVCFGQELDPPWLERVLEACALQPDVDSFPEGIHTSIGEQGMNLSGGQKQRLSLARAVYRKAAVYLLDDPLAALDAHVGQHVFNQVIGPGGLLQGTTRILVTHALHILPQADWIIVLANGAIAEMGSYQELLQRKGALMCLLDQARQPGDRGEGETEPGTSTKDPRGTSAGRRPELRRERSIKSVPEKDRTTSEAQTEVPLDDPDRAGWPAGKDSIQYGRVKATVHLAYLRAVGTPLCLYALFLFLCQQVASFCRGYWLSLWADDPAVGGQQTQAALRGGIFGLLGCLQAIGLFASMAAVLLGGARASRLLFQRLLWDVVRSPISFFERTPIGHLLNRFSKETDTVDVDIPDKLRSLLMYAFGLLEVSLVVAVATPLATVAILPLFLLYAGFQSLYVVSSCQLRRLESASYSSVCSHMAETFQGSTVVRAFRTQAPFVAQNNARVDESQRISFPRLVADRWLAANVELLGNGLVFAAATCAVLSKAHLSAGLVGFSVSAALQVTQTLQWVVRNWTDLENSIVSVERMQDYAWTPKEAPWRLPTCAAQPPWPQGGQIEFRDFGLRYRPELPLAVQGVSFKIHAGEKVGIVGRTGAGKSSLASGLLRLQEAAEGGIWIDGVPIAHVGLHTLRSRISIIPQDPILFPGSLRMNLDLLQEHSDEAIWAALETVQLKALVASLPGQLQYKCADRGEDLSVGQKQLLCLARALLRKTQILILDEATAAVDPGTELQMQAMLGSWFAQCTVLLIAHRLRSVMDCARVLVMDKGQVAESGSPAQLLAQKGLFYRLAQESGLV

[2] = target: T1, ATP-binding cassette sub-family C member 6; test: TP_TRANSPORTER: drug resistance in MRP6-expressing CHO cells; type: functional, cell-based; conditions: hamster

Row | Compound | Activity [1] | Activity [2]
1 | N[C@@H](CCC(=O)N[C@H](CSc1ccc([N+](=O)[O-])cc1[N+](=O)[O-])C(=O)NCC(=O)O)C(=O)O | substrate [+] | –
2 | CC(C)C[C@@H]1NC(=O)[C@@H](C(C)C)NC(=O)[C@@H]2CCCN2C(=O)[C@@H](CC(=O)O)NC(=O)[C@@H](Cc2c[nH]c3ccccc23)NC1=O [BQ-123] (HELM PEPTIDE1{L.[dW].[dD].P.[dV]}$PEPTIDE1,PEPTIDE1,1:R1-5:R2$$$V2.0) | substrate [+] | –
3 | Cc1c2oc3c(C)ccc(C(=O)N[C@@H]4C(=O)N[C@H](C(C)C)C(=O)N5CCC[C@H]5C(=O)N(C)CC(=O)N(C)[C@@H](C(C)C)C(=O)O[C@@H]4C)c3nc-2c(C(=O)N[C@@H]2C(=O)N[C@H](C(C)C)C(=O)N3CCC[C@H]3C(=O)N(C)CC(=O)N(C)[C@@H](C(C)C)C(=O)O[C@@H]2C)c(N)c1=O [DACTINOMYCIN] (I: T[dV]P[Sar][NMeV] / II: T[dV]P[Sar][NMeV]; ester I:1-I:C, II:1-II:C; linker I:N-II:N via Actinocin(9to1)) | – | substrate []
4 | COc1cccc2c1C(=O)c1c(O)c3c(c(O)c1C2=O)C[C@@](O)(C(C)=O)C[C@@H]3O[C@H]1C[C@H](N)[C@H](O)[C@H](C)O1 [DAUNORUBICIN] | – | substrate []
5 | COc1cccc2c1C(=O)c1c(O)c3c(c(O)c1C2=O)C[C@@](O)(C(=O)CO)C[C@@H]3O[C@H]1C[C@H](N)[C@H](O)[C@H](C)O1 [DOXORUBICIN] | – | substrate []
6 | COc1cc([C@@H]2c3cc4c(cc3[C@@H](O[C@@H]3O[C@@H]5CO[C@@H](C)O[C@H]5[C@H](O)[C@H]3O)[C@H]3COC(=O)[C@H]23)OCO4)cc(OC)c1O [ETOPOSIDE] | – | substrate []
7 | CCCCC/C=C\C\C=C/C=C/C=C/[C@@H](SC[C@@H](NC(=O)CC[C@H](N)C(=O)O)C(=O)NCC(=O)O)[C@@H](O)CCCC(=O)O [LEUKOTRIEN C4] | substrate [+] | –
8 | COc1cc([C@@H]2c3cc4c(cc3[C@@H](O[C@@H]3O[C@@H]5CO[C@@H](c6cccs6)O[C@H]5[C@H](O)[C@H]3O)[C@H]3COC(=O)[C@H]23)OCO4)cc(OC)c1O [TENIPOSIDE] | – | substrate []
9 | CISPLATIN | – | substrate []
